One assay relates to Soybean. Kind of assay: Shikimate accumulation in soybean after glyphosate treatment (Example 2, FIG. 6). Type of assay: in vivo. To be noted: ROUNDUP WEATHERMAX at 100, 200, 400 and 800 g a.e./ha; 1, 2, 3 and 4 days after treatment. The protocol:
Soybean plants were established in a greenhouse in 4 inch pots and treated with glyphosate at an early vegetative stage. Approximately 1 plant per pot was treated at the V2 growth stage. Plants were treated with ROUNDUP WEATHERMAX in a track sprayer, at 0, 100, 200, 400 and 800 g a.e./ha and returned to the greenhouse. All treatments were replicated 5 times. Leaves were harvested at five time points: immediately after spray (t0), and at 1, 2, 3 and 4 days after treatment. After harvest, leaves were frozen on dry ice, weighed, and then stored at −80 C until extraction and analysis.
(§1) For t0 harvest, leaves were harvested immediately after treatment. For the 1, 2, 3 and 4 day harvest, plants were washed thoroughly with water from a spray hose and then allowed to dry before harvest. This procedure allowed for the measurement of the concentration of shikimic acid as well as an estimate of the concentration of glyphosate treatment (t0) and the amount of glyphosate absorbed and retained in treated leaves (1, 2, 3 and 4 days after treatment).
(§2) Leaf tissue was ground frozen on dry ice to a frozen powder. […]
(§3) Extract analysis was performed using both HPLC/MS and HPLC/uv (210 nm) detection. […] Shikimic acid was also analyzed on a separate Agilent 1100 HPLC system equipped with a 4.6 mm×250 mm, 5 micron ODS2 Waters Spherisorb® column (P/N PSS831915) using a photodiode array detector.

The subject of another assay is Alfalfa. Kind of assay: Shikimate accumulation in alfalfa over time after glyphosate treatment (Example 1, FIG. 5). Type of assay: in vivo. To be noted: ROUNDUP WEATHERMAX at 100, 200, 400 and 800 g a.e./ha; 1, 2, 3 and 4 days after treatment. The protocol:
Alfalfa was established in a greenhouse in 4 inch pots and treated with glyphosate at an early vegetative stage. Approximately 8 plants per pot were treated at the V4 growth stage. Plants were treated with ROUNDUP WEATHERMAX in a track sprayer, at 0, 100, 200, 400 and 800 g a.e./ha and returned to the greenhouse. All treatments were replicated 5 times. Leaves were harvested at five time points: immediately after spray (t0), and at 1, 2, 3 and 4 days after treatment. After harvest, leaves were frozen on dry ice, weighed, and then stored at −80 C until extraction and analysis.
as §1, §2, §3

The test system of assay [1] is E. coli K-12 host strain LBB427, untransformed or transformed with plasmid pXT1457. Kind of assay: Treatment of E. coli strains with glyphosate in Vogel-Bonner minimal culture medium (Example 7). Type of assay: cell-based, Escherichia coli. The protocol:
To confirm that the new plasmid was functioning as expected, the wild-type E. coli K-12 host strain LBB427 was transformed with the plasmid pXT1457. Techniques for transforming bacteria, including strains of E. coli, are known in the art (Sambrook and Russell, 2001; Ausubel et al., 2005). The shikimic acid and phenylalanine production levels of this strain were compared to that of the untransformed host strain LBB427. The strains were cultured in 50 milliliters of Vogel-Bonner minimal culture medium (Vogel and Bonner, 1956), consisting of magnesium sulfate heptahydrate (MgSO4-7H2O) at 298 milligrams per liter, anhydrous dibasic potassium phosphate (K2HPO4) at 14.93 grams per liter, sodium ammonium phosphate tetrahydrate (NaNH4HPO4-4H2O) at 5.22 grams per liter, anhydrous citric acid (the free acid form) at 2.73 grams per liter, and glucose at 2.00 grams per liter. The pH of the culture medium was 7.0. For the strain LBB427 transformed with the plasmid pXT1457, ampicillin was included in the culture medium at 100 milligrams per liter. The cultures were grown in flasks, on an incubator shaker operating at 300 rpm and 37 degrees Celsius. At 24 hours after inoculation, the cells were pelleted by centrifugation, and the culture supernatants were analyzed by a high-pressure liquid chromatography (HPLC) assay for shikimic acid and phenylalanine content. To the samples to be assayed, phosphoric acid was added to a final concentration of 6 millimolar. The samples were injected onto a 0.5 centimeter by […] Altec 5 micron Bondapak C-18 column, and the eluate was scanned from 190 to 300 nanometers.
The untransformed host strain LBB427 and the host strain LBB427 transformed with the plasmid pXT1457 were grown in 50 milliliters of the Vogel-Bonner minimal culture medium described in Example 5. For the strain LBB427 transformed with the plasmid pXT1457, ampicillin was included in the culture medium at 100 milligrams per liter. The cultures were grown in flasks, on an incubator shaker operating at 300 rpm and 37 degrees Celsius. At 2.5 hours after inoculation, N-(phosphonomethyl)glycine was added to a concentration of 3.38 grams per liter (20 millimolar). […] At 24 hours after inoculation (i.e., 21.5 hours after N-(phosphonomethyl)glycine addition), the cells were pelleted by centrifugation, and the culture supernatants were analyzed for shikimic acid content using the HPLC assay described in Example 5. The culture supernatants of the host strain LBB427 transformed with the plasmid pXT1457 were also analyzed for phenylalanine content.

For assay [2], the system named is E. coli host strain LBB427, untransformed or transformed with plasmid pXT1457 or pXT1483. Briefly: Growth of E. coli strains under phosphate-limiting conditions combined with glyphosate treatment (Example 9). It counts as cell-based, Escherichia coli. To be noted: for Shikimic acid in the culture supernatant: phosphate-limitation, 20 millimolar, 21.5 hours after addition. From the text: A phosphate-limiting culture medium was developed by the Applicants, containing anhydrous magnesium sulfate (MgSO4) at 192 milligrams per liter, ammonium chloride (NH4Cl) at 5.35 grams per liter, potassium chloride (KCl) at 3.73 grams per liter, sodium chloride (NaCl) at 1.17 grams per liter, triethanolamine (a buffering compound) at 22.3 grams per liter, and glucose at 1.5 grams per liter. The pH of the culture medium was 7.0. […] This culture medium was designated PF culture medium (standing for phosphate-free culture medium). However, a phosphate-limiting medium may be formulated for use in the present invention such that, while not phosphate-free, it contains minimal amounts of phosphate (i.e., is substantially free of phosphate). […] Generally, such a phosphate-limiting medium should contain phosphate at levels no more than about 1 millimolar, and preferably at levels no more than about 100 micromolar.
For pre-growth of the strains, sources of phosphate were supplied to this culture medium in the form of Casamino acids at 2.2 grams per liter and yeast extract at 300 milligrams per liter. This culture medium was designated PF-CAA/YE culture medium (standing for PF culture medium plus Casamino acids and yeast extract).
The untransformed host strain LBB427 and the host strain LBB427 transformed with the plasmid pXT1457 or with the plasmid pXT1483 were grown initially in 50 milliliters of the PF-CAA/YE culture medium described in Example 8. For the strains of LBB427 transformed with the plasmid pXT1457 or with the plasmid pXT1483, ampicillin was included in the culture medium at 100 milligrams per liter. The cultures were grown for 2.5 hours in flasks, on an incubator shaker operating at 300 rpm and 37 degrees Celsius. The cells in these cultures were pelleted by centrifugation and resuspended in the same volume of the PF culture medium described in Example 8. For the strains of LBB427 transformed with the plasmid pXT1457 or with the plasmid pXT1483, ampicillin was included in the culture medium at 100 milligrams per liter. To these resuspended cultures, N-(phosphonomethyl)glycine was added to a concentration of 3.38 grams per liter (20 millimolar). […] At 24 hours after inoculation (i.e., 21.5 hours after N-(phosphonomethyl)glycine addition), the cells were pelleted by centrifugation, and the culture supernatants were analyzed for shikimic acid content using the HPLC assay described in Example 5.
It is possible that not all of the accumulated shikimate-3-phosphate in these cells had been converted into shikimic acid and excreted into the culture medium. […] The cells were pelleted by centrifugation, and the culture supernatant was analyzed for shikimic acid content using the HPLC assay described in Example 5.

For assay [3], the system named is E. coli host strain LBB427 transformed with plasmid pXT1483. Briefly: Shikimic acid from a phosphate-limited high-density fermentation culture with glyphosate (Example 10). Type of assay: cell-based, Escherichia coli. To be noted: optical density of 40; 20 millimolar; twelve hours after addition; sample at pH 1.0, 60 degrees Celsius for 15 minutes. Here is the method:
The host strain LBB427 transformed with the plasmid pXT1483 can be grown to high optical densities in a phosphate-limited fermentation culture. Fermentations are conducted in a chemically-defined minimal medium containing 5.9 grams of anhydrous ammonium sulfate ((NH4)2SO4), 1.8 grams of anhydrous dibasic potassium phosphate (K2HPO4), 1.0 grams of monobasic sodium phosphate monohydrate (NaH2PO4—H2O), 550 milligrams of magnesium sulfate heptahydrate (MgSO4-7H2O), 27 milligrams of ferric chloride hexahydrate (FeCl3-6H2O), 0.5 milligrams of zinc sulfate heptahydrate (ZnSO4-7H2O), 0.9 milligrams of cobalt chloride hexahydrate (CoCl2-6H2O), 0.9 milligrams of sodium molybdate dihydrate (Na2MoO4-2H2O), 1.1 milligrams of cupric sulfate pentahydrate (CuSO4-5H2O), 0.3 milligrams of boric acid (H3BO3), and 0.7 milligrams of manganese sulfate monohydrate (MnSO4—H2O) per liter of water. The fermenter is maintained at 37 degrees Celsius. The pH is maintained at 7.0 by the controlled addition of concentrated (about 29%) ammonium hydroxide (NH4OH). […]
Twelve hours after N-(phosphonomethyl)glycine addition, samples of the fermentation cultures are taken for analysis of shikimic acid levels. […] The cells are pelleted by centrifugation, and the culture supernatants are analyzed for shikimic acid content using the HPLC assay described in Example 5.

Where [4] appears, read: LBB427 transformed with pXT1457, 20 millimolar, 21.5 hours after addition.

The record followed here is US8344178B2, “Processes for producing and recovering shikimic acid” (priority 2007, dated 2013).

Turning to `O=C(O)CNCP(=O)(O)O` [glyphosate, N-(phosphonomethyl)glycine], the “Shikimic acid accumulation in soybean leaves” value in the assay with Soybean is reported as “accumulates to significantly high levels”. In addition, in the assay on Alfalfa, the “Shikimic acid accumulation in alfalfa leaves over time” value is “accumulates to significantly high levels”. Moreover, the “Growth of the cultures” value in assay [1] (3.38 grams per liter (20 millimolar), added 2.5 hours after inoculation, LBB427 and LBB427 with pXT1457) is reported as “almost completely inhibited”. For the same molecule, in assay [1] (setting [4]), the “Phenylalanine in the culture supernatant” value is on record as “about 50 milligrams of phenylalanine per OD unit per liter”. Besides, the “Shikimic acid in the culture supernatant” value in assay [1] (setting [4]) was “did not produce detectable levels”; in assay [1] (untransformed host strain LBB427, 20 millimolar, 21.5 hours after addition), “did not produce detectable levels”; in assay [2] (LBB427 transformed with pXT1457), “about 250 milligrams of shikimic acid per OD unit per liter”; in assay [2] (LBB427 transformed with pXT1483), “about 400 milligrams of shikimic acid per OD unit per liter”; in assay [2] (untransformed host strain LBB427), “about 200 milligrams of shikimic acid per OD unit per liter”; in assay [3], “about 24 grams of shikimic acid per liter”. Further, the “Level of shikimic acid in the culture supernatant after acid and heat treatment of the culture sample” value in assay [2] (LBB427 transformed with pXT1483, sample with cells adjusted to pH 1.0, 60 degrees Celsius for 15 minutes) is listed as “about 600 milligrams per OD unit per liter”.
